The results in this text go back to ChEMBL document CHEMBL1201862, “PubChem BioAssay data set” (2004).

Some test systems named below: SNB-78; DMS-273; M19-MEL; XF498; DLD-1; DMS-114; RXF 631; Hs-578T; MDA-N.
Holding throughout (test): NCI anticancer screen, dose series, 48 h

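48-hour exposure; five concentrations; linearly interpolated endpoints. GI50 marks 50% less growth.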 Calls of active or inactive are those of the source. Rule as the data show it: active = GI50 up to about 1.1 µM and inactive = higher. Some results are limits rather than exact numbers.

Turning to `O=C(CC1(O)C(=O)Nc2ccccc21)c1ccccc1Cl` (centres undefined), the GI50 in the test on SNB-78, in the test on DMS-273, in the test with M19-MEL, with XF498, with DLD-1 and in the test with DMS-114 was > 100 µM (inactive) each time.
Turning to `COC(=O)C(=O)C(CC(=O)Nc1c(C)cccc1C)C(=O)OC` (centres undefined), the GI50 in the test with SNB-78, in the test with RXF 631, in the test on M19-MEL, in the test with XF498, in the test on DLD-1 and in the test with DMS-114 was > 100 µM (inactive) in each case.
With `C=CCNC(=S)N1CC(C)C(=O)Nc2ccccc21` (centres undefined), the GI50 in the test with SNB-78, with DMS-273, with XF498 and with DMS-114 was > 100 µM (inactive) each time.
In the case of `Cc1ccc(C2=Nc3ccccc3[S+]([O-])C(c3ccc4c(c3)OCO4)C2)cc1` (centres undefined), the GI50 with SNB-78 was 24.7 µM (inactive); in the test on DMS-273, 28.6 µM (inactive); with M19-MEL, 27 µM (inactive); with XF498, 16.5 µM (inactive); with DLD-1 it was 12.3 µM (inactive).
Turning to `Nc1nncc2c1c(Br)cn2C1OC(CO)C(O)C1O` (centres undefined), the GI50 with SNB-78 was > 66.4 µM (inactive); in the test with DMS-273, 7.23 µM (inactive); in the test on RXF 631 it was 2.84 µM (inactive); with M19-MEL, > 100 µM (inactive); with XF498, > 41.7 µM (inactive); in the test with DLD-1, 4.82 µM (inactive). The GI50 in the test on DMS-114 was 9.35 µM (inactive).
As to `Cc1c(Cl)cccc1NC(=O)/C(Cl)=C(\Cl)C(=O)O`, the GI50 in the test on SNB-78 is 20 µM (inactive); in the test on DMS-273, 20.9 µM (inactive); with RXF 631, 24.8 µM (inactive); in the test on M19-MEL, 17 µM (inactive); in the test on DLD-1 it was 18.2 µM (inactive); in the test on DMS-114, 21.2 µM (inactive).
With `COC(=O)C(Cc1ccccc1)NC(=O)Cn1ccnc1[N+](=O)[O-]` (centres undefined), the GI50 in the test on DMS-273 is > 100 µM (inactive); in the test on RXF 631, > 100 µM (inactive); in the test on M19-MEL, 95.3 µM (inactive); with XF498, > 100 µM (inactive); in the test on DMS-114 it was > 100 µM (inactive).
As to `O=C(/C=C\c1ccccc1O)c1ccc(O)cc1O`, the GI50 in the test on SNB-78, in the test on DMS-273, in the test with RXF 631, in the test with M19-MEL, with DLD-1 and with DMS-114 was > 100 µM (inactive) in each case.
On to `CCNC(=O)O/N=C1\CCC2[C@@H]3CC=C4C[C@@H](OC5CCCCO5)CC[C@]4(C)C3CC[C@]12C` (some centres undefined), for which the GI50 in the test on SNB-78 was 2.24 µM (inactive); in the test on DMS-273, 1.52 µM (inactive); with RXF 631, 2.75 µM (inactive); in the test with M19-MEL, 1.76 µM (inactive); with DLD-1, 4.45 µM (inactive); in the test with DMS-114 it was 1.26 µM (inactive).
For the molecule `COc1ccc(C(c2ccccc2C(=O)O)c2ccc(OC)c3ccccc23)c2ccccc12`, the GI50 with SNB-78 was 20.9 µM (inactive); in the test with DMS-273 it was 14 µM (inactive); in the test with M19-MEL, 12.5 µM (inactive); in the test on XF498, 20.9 µM (inactive); with DLD-1, 7.31 µM (inactive); in the test on DMS-114, 7.06 µM (inactive).
In the case of `O=C(CCCCCCCCC(=O)OCC1OC(n2cnc3c(=O)[nH]cnc32)C(O)C1O)OCC1OC(n2cnc3c(=O)[nH]cnc32)C(O)C1O` (centres undefined), the GI50 in the test on SNB-78, with DMS-273, in the test with M19-MEL, in the test on XF498, in the test on DLD-1 and in the test with DMS-114 was > 100 µM (inactive) throughout.
Turning to `C=C=C(Sc1ccccc1)C(C)(C)O`, the GI50 in the test with RXF 631, with M19-MEL, with XF498 and with DLD-1 was > 100 µM (inactive) in each case.
In the case of `O=C(Cc1ccccc1)N/N=C(/c1nc2ccc([N+](=O)[O-])cc2nc1O)C(O)c1ccc(C(O)/C(=N/NC(=O)Cc2ccccc2)c2nc3ccc([N+](=O)[O-])cc3nc2O)cc1` (centres undefined), the GI50 with RXF 631 is 51.3 µM (inactive); in the test with M19-MEL it was 58.9 µM (inactive); with XF498 it was 29.8 µM (inactive); with DLD-1, 56.8 µM (inactive); in the test with DMS-114 it was 4.29 µM (inactive).
For `CCOC(=O)N1N=NC2C3OC(C[C@@]3(C#N)OC(C)=O)[C@H]21` (some centres undefined), the GI50 in the test with SNB-78, in the test on DMS-273, in the test on RXF 631, in the test on M19-MEL, in the test on XF498 and in the test with DLD-1 was > 100 µM (inactive) throughout.
As to `COCCCNC(=O)CC(=O)NCCCOC`, the GI50 in the test with SNB-78, with RXF 631, with M19-MEL, with DLD-1 and in the test with DMS-114 was > 100 µM (inactive) throughout.
Regarding `Cc1ccc([N+](=O)[O-])cc1NC(=O)/C(CC(=O)c1sc(C(N)=S)nc1C)=N\N`, the GI50 is > 100 µM (inactive) in the test with SNB-78; 29.7 µM (inactive) in the test with DMS-273; 31.5 µM (inactive) in the test with RXF 631; 71.8 µM (inactive) in the test with M19-MEL; > 100 µM (inactive) in the test on DLD-1; 30.3 µM (inactive) with DMS-114.
On to `N#CC1(C2CC(=O)N(c3ccccc3)C2=O)CCCCC1=O` (centres undefined), for which the GI50 is > 100 µM (inactive) in the test with SNB-78; > 100 µM (inactive) in the test with DMS-273; > 100 µM (inactive) in the test on RXF 631; > 100 µM (inactive) in the test on M19-MEL; 9.2 µM (inactive) in the test on XF498; > 100 µM (inactive) in the test on DLD-1. Moreover, the GI50 with DMS-114 is > 100 µM (inactive).
In the case of `C/C(CC(=O)NC1=CC=C(NC(=O)C/C(C)=N\Nc2ccccc2)CC1)=N/Nc1ccccc1`, the GI50 in the test with SNB-78 is > 100 µM (inactive); in the test with DMS-273 it was 27 µM (inactive); in the test with RXF 631 it was 41.4 µM (inactive); in the test on M19-MEL, > 100 µM (inactive); in the test with XF498, > 100 µM (inactive); in the test on DLD-1, > 100 µM (inactive). Moreover, the GI50 with DMS-114 was > 100 µM (inactive).
For `CC(=O)c1ccc(NC(=O)C(=O)Nn2c(S)nc3ccccc3c2=O)cc1`, the GI50 in the test on SNB-78, in the test on M19-MEL, in the test with XF498, in the test with DLD-1 and with DMS-114 was > 100 µM (inactive) in each case.
For `COCC(C#N)NC1CC(OC2CC(O)(C(=O)CO)Cc3c(O)c4c(c(O)c32)C(=O)c2c(OC)cccc2C4=O)OC(C)C1O` (centres undefined), the GI50 with Hs-578T is 0.161 µM (active); in the test with SNB-78 it was 0.235 µM (active); in the test on DMS-273, 0.0266 µM (active); with RXF 631 it was 0.0716 µM (active); in the test with M19-MEL, 0.0528 µM (active); with MDA-N it was 0.0975 µM (active). Moreover, the GI50 with XF498 is 0.0427 µM (active); in the test with DLD-1, 0.2 µM (active); with DMS-114, 0.0361 µM (active).
Regarding `C=C[C@]1(C)CCC2=C(CCC3C2(C)CCC[C@]3(C)CO)C1` (some centres undefined), the GI50 with SNB-78 is 79.4 µM (inactive); with DMS-273 it was 41.8 µM (inactive); with RXF 631, 51.1 µM (inactive); in the test with M19-MEL, 43.5 µM (inactive); with XF498 it was 52.6 µM (inactive); with DLD-1, 50 µM (inactive). In addition, the GI50 with DMS-114 is 31.2 µM (inactive).
